Measured values published in US10828378B2, “Nucleic acid construct for expression of oxidative stress indicator and use thereof” (Riken, priority 2011, dated 2020).
Structures can show the parent of a compound that is named as a salt.

What was measured:
[1] = test system: OKD48-Luc reporter (Keap1-Nrf2 pathway); assay: Dual luciferase assay using the OKD48-Luc reporter in HeLa cells; type: cell-based, human; conditions: for response of HeLa cells containing OKD48-Luc (luciferase assay): 8 h or 16 h, 10 μM ASN, 100 μM DEM, 2.5 μg/ml tunicamycin, 1 μM thapsigargin, 1 mM DTT, 100 μM etoposide, 100 μg/ml TTFA, FIG. 5A
Method: HeLa cells or HEK293T cells were cultured in a DMEM medium supplemented with 100 U/ml penicillin, 100 μg/ml streptomycin, and 10% fetal bovine serum at 37° C. in an atmosphere containing 5% CO2. The plasmid DNAs were inserted into the cells of each line using the calcium phosphate-DNA precipitation method. In order to test cellular response to agents, the cells were treated with 10 μM sodium arsenite (ASN), 100 μM diethyl maleate (DEM), 200 μM H2O2, 2.5 μg/ml tunicamycin, 1 μM thapsigargin, 1 mM DTT, 100 μM etoposide, or 100 μg/ml thenoyltrifluoroacetone (TTFA) over varying times.
In dual luciferase assay using the OKD48-Luc reporter, phRL-TK (Promega Corp.) was used as an internal control. The HeLa cells were seeded on a 24-well plate and then transfected with the plasmid DNAs. At 24 hours after the transfection, the cells were lysed for luciferase assay. Each reporter activity was measured using a luciferase assay system (Promega Corp.) and a luminometer (Berthold Japan Co., Ltd.). The results were shown as mean±SEM of three experiments. Each value was indicated in terms of fold induction. This fold induction was normalized for that of an untreated sample (NT) (FIG. 5A), an untreated sample (NT) free from Nrf2 overexpression (FIG. 5D), or an untreated sample (NT) free from Keap1 overexpression (FIG. 5E). In this calculation, the fold induction of each NT was defined as 1.0.

[2] = test system: endogenous Nrf2; assay: Western blot of endogenous Nrf2 in HeLa cells; type: cell-based, human; conditions: 8 h or 16 h treatment, FIG. 5C
Method: (§1) HeLa cells were transfected with the OKD48 construct. Luciferase assay was conducted after treatment for 8 hours or 16 hours in the presence or absence of different stressors (sodium arsenite (ASN), diethyl maleate (DEM), H2O2, tunicamycin (Tun), thapsigargin (Tg), dithiothreitol (DTT), etoposide (Etp), and thenoyltrifluoroacetone (TTFA)). […] HEK293T cells were transfected with the OKD48 construct and treated for 8 hours in the presence or absence of different stressors. The cell lysates were analyzed by Western blotting using an anti-Luc antibody or an anti-GAPDH antibody. […] HeLa cells were treated for 8 hours or 16 hours in the presence or absence of different stressors. Then, the cell lysates were analyzed by Western blotting using an anti-Luc antibody or an anti-GAPDH antibody. […]
(§2) The cells were lysed in an SDS sample buffer (50 mM Tris-HCl (pH 6.8), 2% SDS, 50 mM DTT, 10% glycerol, and 1 μg/ml bromophenol blue). […] After the electrophoresis, the proteins were electrically transferred to a polyvinylidene fluoride porous membrane and immunologically detected by a standard approach using a monoclonal antibody against luciferase (Promega Corp.), a monoclonal antibody against GFP (Nacalai Tesque, Inc.), a monoclonal antibody against GAPDH (Cell Signaling Technology, Inc.), or a polyclonal antibody against Nrf2 (Santa Cruz Biotechnology, Inc.).

[3] = test system: OKD48-Venus reporter; assay: Fluorescence imaging of OKD48-Venus reporter in HEK293T cells; type: cell-based, human; conditions: 8 h treatment, FIG. 7A
Method: HEK293T cells were transfected with the OKD48-Venus construct and then treated for 8 hours in the presence or absence of sodium arsenite (ASN) or diethyl maleate. Their fluorescence images were obtained together with phase-contrast images. […] HEK293T cells were transfected with the OKD48-Venus construct and then treated for 8 hours in the presence or absence of sodium arsenite (ASN), diethyl maleate (DEM), H2O2, tunicamycin (Tun), thapsigargin (Tg), dithiothreitol (DTT), etoposide (Etp), or thenoyltrifluoroacetone (TTFA). Fluorescence from their cell lysates was measured and normalized for luciferase in the cotransfected cells. In the diagram, n.d. represents not detected. […] Their cell lysates were analyzed by Western blotting using an anti-GFP antibody or an anti-GAPDH antibody. […]
In order to take images of the cells, the HEK293T cells were seeded over a 6-well plate and then transfected with the plasmid DNAs. At 24 hours after the transfection, fluorescence images were obtained using FSX100 (Olympus Corp.). In order to measure the fluorescence of cell lysates, the cells were lysed in a digitonin buffer (50 mM Tris-HCl (pH 7.5), 1 mM EDTA, 10 mM EGTA, and 10 μM digitonin) at 37° C. for 30 minutes. […] The fluorescence intensity of each sample was normalized against the activity of luciferase derived from the cotransfected cells. […]

[4] = test system: OKD48-Luc; assay: Western blot of OKD48-Luc protein with anti-Luc antibody in HEK293T cells; type: cell-based, human; conditions: 8 h treatment, FIG. 5B
Method: as §1, §2

[5] = test system: OKD48-transgenic mouse; assay: In vivo luminescence imaging of OKD48-transgenic mouse; conditions: 12.5 mg/kg intraperitoneal, 6 hours later
Method: The 4.5-kb Spel-SfiI fragment of p(3×ARE)TKbasal-hNrf2(1-433)-GL4-Flag was microinjected as a transgene into the fertilized eggs of a C57BL/6 mouse. […] The obtained mouse was used for in vivo imaging assay. After intraperitoneal injection of D-luciferin (4.5 mg), the mouse was analyzed according to a standard protocol using an in vivo imaging system IVIS (Xenogen Corp.). The experimental protocol involving the animal was approved by the animal research committee of RIKEN (Japan).
In order to monitor oxidative stress in vivo, an OKD48-transgenic mouse having a 3×ARE-driven Nrf2(1-433)-Luc expression gene was prepared. In order to confirm that cells placed under oxidative stress were able to be effectively used in vivo, ASN inducing oxidative stress in various tissues or organs was intraperitoneally injected (12.5 mg/kg) to a transgenic mouse.

Molecule: COc1cc([C@@H]2c3cc4c(cc3[C@@H](O[C@@H]3O[C@@H]5CO[C@@H](C)O[C@H]5[C@H](O)[C@H]3O)[C@H]3COC(=O)[C@H]23)OCO4)cc(OC)c1O [etoposide]
- response of HeLa cells containing OKD48-Luc (luciferase assay) [1]: rarely activated

Molecule: tunicamycin
- response of HeLa cells containing OKD48-Luc (luciferase assay) [1]: rarely activated

Molecule: O[C@H](CS)[C@H](O)CS (racemic) [dithiothreitol]
- response of HeLa cells containing OKD48-Luc (luciferase assay) [1]: rarely activated

Molecule: O=C(CC(=O)C(F)(F)F)c1cccs1 [thenoyltrifluoroacetone]
- response of HeLa cells containing OKD48-Luc (luciferase assay) [1]: rarely activated

Molecule: C/C=C(/C)C(=O)O[C@H]1C(C)=C2[C@H]([C@@H]1OC(=O)CCCCCCC)[C@@](C)(OC(C)=O)C[C@H](OC(=O)CCC)[C@@]1(O)[C@H]2OC(=O)[C@@]1(C)O [thapsigargin]
- response of HeLa cells containing OKD48-Luc (luciferase assay) [1]: rarely activated

Molecule: O=[As]O [ASN, sodium arsenite]
- activity of OKD48-Luc under Nrf2 overexpression, effect of stressor treatment ([1]; HeLa cells with Nrf2 overexpression, 8 h treatment, FIG. 5D): slightly increased
- response of HeLa cells containing OKD48-Luc (luciferase assay) [1]: specifically responded
- induction of endogenous Nrf2 (Western blot) [2]: significantly induced
- fluorescence of OKD48-Venus under microscopic observation [3]: emitted fluorescence
- OKD48-Luc at the protein level (Western blot, anti-Luc antibody) [4]: rise
- luminescence in the liver ([5]; abdominal section, FIG. 8): strong luminescence
- luminescence in other tissues or organs (e.g., stomach and kidney) ([5]; data not shown): detected to some extent

Molecule: CCOC(=O)/C=C\C(=O)OCC [DEM, diethyl maleate]
- response of HeLa cells containing OKD48-Luc (luciferase assay) [1]: specifically responded
- induction of endogenous Nrf2 (Western blot) [2]: significantly induced
- fluorescence of OKD48-Venus under microscopic observation [3]: emitted fluorescence
- OKD48-Luc at the protein level (Western blot, anti-Luc antibody) [4]: rise
